Measured values reported in ChEMBL document CHEMBL5214984, “Identification of Organic Anion Transporter 2 Inhibitors: Screening, Structure-Based Analysis, and Clinical Drug Interaction Risk Assessment” (J Med Chem, 2022).

Legend:
[1] = Dissociation constant, pKa of the compound; format: physicochemical
[2] = Lipophilicity, log D of the compound; details: octanol/water
[3] = Inhibition of human OAT2 tv.1 variant expressed in HEK293 cells assessed as inhibition of [3H]cGMP uptake by scintillation analysis; format: ADME, cell-based; details: HEK293, 3 h

SMILES | pKa [1] | logD [2] | IC50 [3] [µM]
Nc1nc2[nH]cc(CCc3ccc(C(=O)N[C@@H](CCC(=O)O)C(=O)O)cc3)c2c(=O)[nH]1 [PEMETREXED] | 3.5 | -1.93 | –
CCN(CC)C(=O)/C(C#N)=C/c1cc(O)c(O)c([N+](=O)[O-])c1 [ENTACAPONE] | 4.2 | 0.23 | 1.9
N=C(N)NCCCNC(=O)[C@@H]1CCCCN1C(=O)[C@@H](CC1CCCCC1)NCC(=O)O [INOGATRAN] | 2.1 | 0.04 | –
CNn1cc(C(=O)O)c(=O)c2cc(F)c(N3CCN(C)CC3)cc21 [AMIFLOXACIN] | 6.3 | -0.08 | –
Cc1ccc(O)c([C@H](CCN(C(C)C)C(C)C)c2ccccc2)c1 [TOLTERODINE] | 9.2 | 1.82 | –
CC(C(=O)O)c1cccc(C(=O)c2ccccc2)c1 (stereo not given) [KETOPROFEN] | – | 0.21 | 14.9
CNCC[C@@H](Oc1ccccc1C)c1ccccc1 [ATOMOXETINE] | 9.6 | 0.57 | –
COc1ccc2c(c1)c(CC(=O)O)c(C)n2C(=O)c1ccc(Cl)cc1 [INDOMETHACIN] | – | 1.03 | 2.9
CCCc1nc2c(C)cc(-c3nc4ccccc4n3C)cc2n1Cc1ccc(-c2ccccc2C(=O)O)cc1 | 3.6 | 2.35 | 13.7
C[C@H]1CN(C[C@H](Cc2ccccc2)C(=O)NCC(=O)O)CC[C@@]1(C)c1cccc(O)c1 [ALVIMOPAN] | 3.2 | 0.65 | –
CNS(=O)(=O)Cc1ccc2[nH]cc(CCN(C)C)c2c1 | 8.7 | -1.08 | –
O=C(O)CSc1nnc(Br)n1-c1ccc(C2CC2)c2ccccc12 | 3.4 | 0.46 | 11.5
CN(C)CCCN1c2ccccc2CCc2ccccc21 [IMIPRAMINE] | 9 | – | –
COC(=O)C1=C(C)NC(C)=C(C(=O)OC)C1c1ccccc1[N+](=O)[O-] [NIFEDIPINE] | – | – | 6.5
N[C@@H]1[C@H]2CN(c3nc4c(cc3F)c(=O)c(C(=O)O)cn4-c3ccc(F)cc3F)C[C@@H]12 [TROVAFLOXACIN] | 6 | 0.42 | 11.5
O=C1CN(/N=C/c2ccc(-c3ccc([N+](=O)[O-])cc3)o2)C(=O)N1 [DANTROLENE] | – | – | 16

Further lines, results first:

pKa [1] | logD [2] | IC50 [3] [µM] | SMILES
9.3 | -1.19 | – | CC(C)(C)NCC(O)COc1cccc2c1CC(O)C(O)C2 (stereo not given) [NADOLOL]
– | 2.15 | 14.9 | COc1ccc(Cl)cc1C(=O)NCCc1ccc(S(=O)(=O)NC(=O)NC2CCCCC2)cc1 [GLYBURIDE]
– | – | 16 | O=C1NC(=O)N(/N=C/c2ccc(-c3ccc([N+](=O)[O-])cc3)o2)C1O (stereo not given)
4.8 | -1.17 | – | Cc1noc(NS(=O)(=O)c2ccc(N)cc2)c1C [SULFISOXAZOLE]
4.6 | 2.55 | 9.5 | CN(C)C(=O)CCSC(SCCC(=O)O)c1cccc(/C=C/c2ccc3ccc(Cl)cc3n2)c1 (stereo not given) [MK-571]
8.7 | -0.63 | – | CN(C)CCc1c[nH]c2ccc(C[C@H]3COC(=O)N3)cc12 [ZOLMITRIPTAN]
4.2 | 0.91 | 15.7 | CCCCc1nc(C)c(CC(=S)N(C)C)c(=O)n1Cc1ccc(-c2ccccc2-c2nnn[nH]2)cc1
2.8 | -1.88 | – | COc1cccc(OC)c1C(=O)N[C@@H]1C(=O)N2[C@@H]1SC(C)(C)[C@@H]2C(=O)O [METHICILLIN]
